# Experimental data published in publication PMC5589090 (PLoS Medicine, 2017).
# Read-outs that look alike come from different tables or passages of the source.
# Key:
# DNMT1 = target: T1, DNMT1 (Homo sapiens, UniProt P26358); assay: DNMT1 protein measurement by flow cytometry of peripheral blood mononuclear cells; format: in vivo
# T1 construct: DNMT1 protein levels were measured by flow cytometric analysis of peripheral blood mononuclear cells; endogenous in cells; host or cells: peripheral blood mononuclear cells of sickle cell disease patients (ex vivo, after in vivo dosing)
# T1 sequence (P26358 whole entry): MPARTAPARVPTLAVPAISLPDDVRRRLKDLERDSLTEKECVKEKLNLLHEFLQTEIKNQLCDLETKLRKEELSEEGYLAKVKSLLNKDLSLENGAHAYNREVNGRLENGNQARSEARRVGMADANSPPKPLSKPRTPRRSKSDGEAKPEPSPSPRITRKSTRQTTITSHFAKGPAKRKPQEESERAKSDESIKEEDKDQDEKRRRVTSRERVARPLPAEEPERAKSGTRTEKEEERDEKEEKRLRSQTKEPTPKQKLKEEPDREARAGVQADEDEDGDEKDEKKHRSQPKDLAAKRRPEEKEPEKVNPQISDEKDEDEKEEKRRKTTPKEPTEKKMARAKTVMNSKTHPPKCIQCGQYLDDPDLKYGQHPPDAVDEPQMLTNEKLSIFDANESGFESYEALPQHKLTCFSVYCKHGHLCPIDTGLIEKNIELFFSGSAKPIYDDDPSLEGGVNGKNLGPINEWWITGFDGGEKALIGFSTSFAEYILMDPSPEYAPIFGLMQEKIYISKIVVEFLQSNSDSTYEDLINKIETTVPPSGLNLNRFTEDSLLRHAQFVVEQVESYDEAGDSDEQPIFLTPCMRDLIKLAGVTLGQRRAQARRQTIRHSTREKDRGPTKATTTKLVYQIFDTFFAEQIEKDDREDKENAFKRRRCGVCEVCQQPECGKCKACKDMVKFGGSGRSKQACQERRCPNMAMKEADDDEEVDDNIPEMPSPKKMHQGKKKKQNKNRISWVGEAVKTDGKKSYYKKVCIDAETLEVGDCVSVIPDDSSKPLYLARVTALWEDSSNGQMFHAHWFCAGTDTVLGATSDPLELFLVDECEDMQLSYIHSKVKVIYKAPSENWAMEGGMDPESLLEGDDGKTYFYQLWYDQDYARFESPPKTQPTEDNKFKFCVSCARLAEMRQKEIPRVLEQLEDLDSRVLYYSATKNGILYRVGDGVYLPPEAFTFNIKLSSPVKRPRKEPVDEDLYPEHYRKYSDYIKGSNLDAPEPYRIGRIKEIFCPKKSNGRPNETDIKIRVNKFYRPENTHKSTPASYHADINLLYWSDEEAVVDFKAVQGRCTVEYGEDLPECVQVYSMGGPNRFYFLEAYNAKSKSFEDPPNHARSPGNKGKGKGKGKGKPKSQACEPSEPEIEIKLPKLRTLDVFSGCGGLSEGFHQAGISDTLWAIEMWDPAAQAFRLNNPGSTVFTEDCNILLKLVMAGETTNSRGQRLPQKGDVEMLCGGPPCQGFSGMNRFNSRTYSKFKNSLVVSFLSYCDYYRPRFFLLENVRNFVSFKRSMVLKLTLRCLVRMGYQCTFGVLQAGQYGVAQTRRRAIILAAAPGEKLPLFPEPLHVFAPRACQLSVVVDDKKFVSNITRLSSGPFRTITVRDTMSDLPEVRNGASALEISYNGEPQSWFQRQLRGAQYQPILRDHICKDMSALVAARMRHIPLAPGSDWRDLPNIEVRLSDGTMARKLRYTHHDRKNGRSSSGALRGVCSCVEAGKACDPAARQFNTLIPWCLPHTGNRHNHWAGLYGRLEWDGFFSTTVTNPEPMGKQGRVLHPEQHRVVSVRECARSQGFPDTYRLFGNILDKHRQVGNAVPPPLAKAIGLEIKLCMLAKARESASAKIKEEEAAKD
# Method: Phlebotomized whole blood was layered over Histopaque. The interface was collected and washed with phosphate-buffered saline (PBS). Cell suspensions of approximately 200,000 cells were fixed with 4% paraformaldehyde for 30 minutes on ice. Cells were spun down, washed in PBS, and suspended in 70% ethanol and stored at −20°C for subsequent batched analyses. […] All procedures were performed on ice and all centrifugations were done at 400 g for 5 minutes at 4°C. The pellet was hydrated overnight in 1 ml sterile, distilled water to partially reverse the alcohol fixation. After incubation, samples were centrifuged and then resuspended in 1 ml PBS/2% bovine serum albumin (BSA) and incubated for 30 minutes to block nonspecific antibody binding. Following centrifugation, unlabeled anti-DNMT1 antibody [EPR 3522] […] Samples were washed 3 times: each wash was a 10-minute incubation with 1 ml PBS/2% BSA followed by centrifugation. After the third wash, CD64-Alexa Fluor 488 (5 μl/test; BioLegend; catalog no. 305010), Cyclin A2-PE (4μl/test; Beckman Coulter; catalog no. B15092), CD33-APC/Cy7 (5 μl/test; BioLegend; catalog no. 366614), and F(ab′)2-goat anti-rabbit IgG (H+L) Alexa Fluor 647 (0.0938 μg/test; Life Technologies; catalog no. A21246) were added in a final volume of 100 μl and incubated for 1 hour. After the incubation and without washing, 3.5 ml PBS containing 0.5 μg/ml DAPI was added to each sample. All samples were analyzed on an Attune NxT Acoustic Focusing Cytometer (Life Technologies) at a flow rate of 500 μl per minute. Compensation was performed with CompBeads Set Anti-Mouse Ig, κ (BD Biosciences; catalog no. 552843) and Flow Cytometry Protein G Antibody Binding Beads (Bangs Laboratories, Inc.; catalog no. 554/11863).
# Data were normalized to the instrument using 8-peak SPHERO Rainbow Calibration Particles (Spherotech; catalog no. RCP-30-5A). WinList 3D v8.0 (Verity Software House) was used for post-acquisition analysis. Doublet discrimination was performed using the DAPI area and peak signals. […]
# [1] = tested on: LINE-1 repetitive element CpG; assay: Methylation level of LINE-1 repetitive element CpG by pyrosequencing in PBMC; format: in vivo, human
# Method: DNA was purified from peripheral blood mononuclear cells (isolated by Ficoll-Hypaque density centrifugation) using the Wizard Genomic DNA Purification Kit (Promega). DNA was bisulfite-converted using EZ DNA Lightning Methylation kit (Zymo Research). The PCR primers were 10 pmol of 5′- […]-3′ and 10 pmol of biotinylated-5′-[…]-3′. PCR cycling conditions were: cycle temperature of 94°C for 30 seconds, 60°C for 30 seconds, and 72°C for 30 seconds, for 45 cycles to consume all the biotinylated primers. The biotinylated strand was captured on streptavidin sepharose beads (Amersham Biosciences, Uppsala, Sweden) and annealed with the sequencing primer 5′-[…]-3′. The methylation degree of long interspersed nuclear elements (LINE-1) was computed at 3 CpG sites pyrosequenced with the Pyromark Q24 Pyrosequencer (Qiagen) using the dispensation order […].
# [2] = cited from earlier work
# [3] = tested on: Friend erythroleukemia cells; parameters: method as in ref 48 (a number printed in a supplementary file, which may have a reference list of its own: not looked up in the article's list); details: single exposure 0.4 µM; cited from earlier work
# THP1 = details: 0.3 µM daily for 2-3 days; cited from earlier work
# 8 melanoma cell lines = tested on: 8 melanoma cell lines; parameters: method as in ref 21 (a number printed in a supplementary file, which may have a reference list of its own: not looked up in the article's list); details: two daily treatments 0.2 µM; cited from earlier work
# [4] = tested on: L5178Y mouse lymphoma cells; parameters: method as in ref 75 (a number printed in a supplementary file, which may have a reference list of its own: not looked up in the article's list); details: cited from earlier work
# tumor cell lines = tested on: tumor cell lines; parameters: method as in ref 83 (a number printed in a supplementary file, which may have a reference list of its own: not looked up in the article's list); details: of 25 940 genes analyzed; cited from earlier work
# testicular cancer = tested on: testicular cancer; parameters: method as in ref 92 (a number printed in a supplementary file, which may have a reference list of its own: not looked up in the article's list); details: 20% incidence in controls; cited from earlier work
# cancers = tested on: cancers; parameters: method as in ref 94 (a number printed in a supplementary file, which may have a reference list of its own: not looked up in the article's list); details: cited from earlier work
# [5] = tested on: malignant tumor formation; parameters: method as in Berger MR. Proc Am Ass Cancer Res 1997;38:599; details: 6mg/kg of decitabine; controls 30-40%; ref Berger MR. Proc Am Ass Cancer Res 1997;38:599; cited from earlier work
# [6] = cited from earlier work; for Cmax: read-out: decitabine Cmax
# [7] = rat, in vivo; cited from earlier work
structure (smiles),measurement,setting,value
"Nc1ncn([C@H]2C[C@H](O)[C@@H](CO)O2)c(=O)n1 [decitabine, 5-aza-2’-deoxycytidine]",DNMT1 protein decrease from baseline in PBMC,"DNMT1; decitabine 0.08 mg/kg (cohort 4) after THU 10 mg/kg 2X/week, all patients",approximately 50%
same,DNMT1 protein decrease from baseline in PBMC,"DNMT1; decitabine […] (cohort 5) after THU 10 mg/kg 2X/week, 2 of the 3 patients",> 75%
same,DNMT1 protein decrease from baseline in PBMC,DNMT1; lower decitabine doses (cohorts 1-3),not in patients with lower decitabine doses
same,LINE-1 repetitive element CpG methylation decrease in PBMC,[1]; decitabine […] (cohort 5) after THU 10 mg/kg 2X/week,approximately 10%
same,LINE-1 CpG methylation decrease in PBMC,[1]; lower decitabine doses (cohorts 1-4),not with lower decitabine doses
same,plasma t ½,"[2]; Fig 1C, decitabine alone",< 15 min
same,decitabine half-life in vivo,"[2]; abbreviated by CDA, ref 27;28",< 20 min
same,oral bioavailability,[2]; decitabine alone,negligible
same,plasma half-life,[2]; decitabine alone,only minutes
same,Cmax,"[2]; read-out: Cmax that correlates with nucleotide pool imbalance, DNA-damage, and cytotoxicity",> 500 nM
same,DNA methylation,[3],decreased DNA methylation
same,viability,[3],did not decrease viability
same,DNMT1 protein expression,THP1,profoundly decreased DNMT1 protein expression
same,phosphorylation of H2AX,THP1,did not increase phosphorylation of H2AX
same,viability,THP1,did not decrease the viability
same,"DNA damage (H2AX, CHK1, p53 phosphorylation, BAX, GADD45, comet assay)",8 melanoma cell lines,did not cause DNA damage
same,mutations as measured by 6TG resistance,[4],did not produce mutations
same,mutations as measured by tri-fluorothymidine resistance,[4]; thymidine kinase locus,did induce mutations
same,genes with increased expression,tumor cell lines,0.67%
same,testicular cancer occurrence,testicular cancer,0%
same,decrease of the incidence of cancers,cancers,30%
same,rate of malignant tumor formation,[5],74-94%
same,lethal toxicity,"[6]; decitabine 1.0 mg/kg + THU 167 mg/kg 2X/week for 9 weeks, ref Investigators Brochure",lethal toxicity in eight females and one male
same,"toxicity in bone marrow, lymphoid and testicular tissue","[6]; decitabine 0.2 and 0.4 mg/kg + THU, ref Investigators Brochure",reversible toxicity
same,Cmax,"[6]; low dose 0.2 mg/kg + THU 167 mg/kg oral gavage 2X/week, ref Investigators Brochure",1500 nM
same,Cmax,"[6]; mid dose 0.4 mg/kg + THU 167 mg/kg oral gavage 2X/week, ref Investigators Brochure",2900 nM
same,Cmax,"[6]; mouse, in vivo",8600 nM
same,NOAEL,[6]; ref Investigators Brochure,no NOAEL
same,"decrease of decitabine Cmax and AUC cal,0→180 on day 58 compared to day 1",[6]; ref Investigators Brochure,~ 30%
same,embryo toxicity,[7],fetal resorption and fetal defects
